Laboratory results: patent US5223513A, “Quinoline derivatives, their production and use” (Takeda Chemical Industries, Ltd., priority 1989, dated 1993)

Experiments:
[1] = target: T1, acyl-CoA : cholesterol acyltransferase (ACAT) (Rattus norvegicus, UniProt Q7TQM4); experiment: Acyl-CoA : Cholesterol Acyltransferase (ACAT) inhibitory activity; format: biochemical; conditions: for inhibition at 1 µM: 10^-6 M of test compound, production of labeled cholesterol ester, read-out: ACAT Inhibition Rate (%); for IC50: calculated by plotting inhibition rates obtained at plural concentrations, read-out: 50% inhibitory concentration (IC50)
T1 construct: mucosal microsome fraction of the small intestine; from tissue; host or cells: mucosal microsome fraction of rat small intestine
T1 sequence (Q7TQM4 1-524): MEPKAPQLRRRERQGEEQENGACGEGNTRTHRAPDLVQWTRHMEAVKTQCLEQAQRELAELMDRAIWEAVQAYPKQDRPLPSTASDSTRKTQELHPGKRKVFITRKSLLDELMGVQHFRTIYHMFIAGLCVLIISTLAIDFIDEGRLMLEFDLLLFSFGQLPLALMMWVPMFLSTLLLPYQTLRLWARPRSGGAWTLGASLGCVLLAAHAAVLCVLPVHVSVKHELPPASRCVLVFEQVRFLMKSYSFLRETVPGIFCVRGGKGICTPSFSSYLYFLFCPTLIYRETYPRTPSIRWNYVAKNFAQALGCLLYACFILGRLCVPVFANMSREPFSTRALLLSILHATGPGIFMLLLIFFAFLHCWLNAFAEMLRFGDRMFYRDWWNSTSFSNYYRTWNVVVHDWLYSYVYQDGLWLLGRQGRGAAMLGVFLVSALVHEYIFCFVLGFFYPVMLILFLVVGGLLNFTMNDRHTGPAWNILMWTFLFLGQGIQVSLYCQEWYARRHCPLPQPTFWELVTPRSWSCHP
Experimental: The enzyme ACAT was prepared by the method of Heider et al. described in Journal of Lipid Research, Vol. 24, page 1127 (1982), from the mucosal microsome fraction of the small intestine of male, 6-week old Sprague-Dawley rats which had been fasted for 20 hours.
ACAT activity was calculated by the method of Helgerud et al. described in Journal of Lipid Research, Vol. 22, page 271 (1981), namely, by measuring the amount of the labeled cholesterol ester produced from [1-^14 C] oleoyl-CoA and endogenous cholesterol. […]

[2] = Plasma Cholesterol Lowering Activity in Cholesterol Fed Rat; format: in vivo, rat (Sarague-Dawely); conditions: 1% cholesterol diet containing 0.0003% of test compound for 7 days; Example 3 dose 0.27 ± 0.02, Example 24 dose 0.24 ± 0.03 mg/kg/day; mean ± standard deviation; *p < 0.05 (t test vs control group 195 ± 32)
Experimental: To 7-week old, male Sarague-Dawely rats which were grouped according to body weight was fed 1% cholesterol diet containing 0.5% of cholic acid, 5% of olive oil and 0.0003% of a test compound for 7 days. Blood was collected from the rats during 8:30-10:00 am at the fed state, and the plasma cholesterol level was measured enzymatically. The amount of test compound consumed by rats was calculated on the basis of the amount of the diet consumed by the rats.

Compound	inhibition at 1 µM [1]	IC50 [1]	Cholesterol in Serum [2]
Cc1cc(C)c2c(c1)c(-c1ccccc1Cl)c(NC(=O)Nc1ccc(F)cc1F)c(=O)n2C [Example 4, N-[4-(2-chlorophenyl)-1,2-dihydro-1,6,8-trimethyl-2-oxo-3-quinolyl]-N'-(2,4-difluorophenyl)urea]	97.1%	–	–
COc1nc2ccc(Cl)cc2c(-c2ccccc2Cl)c1NC(=O)Nc1ccc(F)cc1F [Example 9]	89.6%	–	–
COc1ccc(-c2c(NC(=O)Nc3ccc(F)cc3F)c(=O)n(C)c3ccc(C)cc23)cc1OC [Example 11, N-(2,4-difluorophenyl)-N'-[1,2-dihydro-4-(3,4-di-methoxyphenyl) -1,6-dimethyl-2-oxo-3-quinolyl]urea]	96.6%	–	–
Cn1c(=O)c(NC(=O)Nc2ccc(F)cc2F)c(-c2ccccc2)c2cc(Cl)ccc21 [Example 7, N-(6-chloro-1,2-dihydro-1-methyl-2-oxo-4-phenyl-3-quinolyl)-N'-(2,4-difluorophenyl)urea]	77.9%	–	–
Cc1ccccc1-c1c(NC(=O)Nc2c(C)cccc2C(C)C)c(=O)n(C)c2ccc(Cl)cc12 [Example 21, N-[6-chloro-1,2-dihydro-1-methyl-4-(2-methylphenyl)-2-oxo-3-quinolyl]-N'-(2-isopropyl-6-methylphenyl)urea]	99.4%	0.017 µM	–
Cc1cc2c(-c3ccccc3C)c(NC(=O)Nc3ccc(F)cc3F)c(=O)n(C)c2cc1Cl [Example 24, N-[7-chloro-1,2-dihydro-4-(2-methylphenyl)-1,6-dimethyl-2-oxo-3-quinolyl]-N'-(2,4-difluorophenyl)urea]	99.2%	0.0093 µM	113 ± 41 mg/dL
Cc1cccc(C(C)C)c1NC(=O)Nc1c(-c2ccccc2Cl)c2cc(Cl)ccc2n(C)c1=O [Example 2]	99.2%	0.016 µM	–
CCn1c(=O)c(NC(=O)Nc2ccc(F)cc2F)c(-c2ccccc2Cl)c2cc(C)cc(C)c21 [Example 6, N-[4-(2-chlorophenyl)-1-ethyl-1,2-dihydro-6,8-di-methyl-2-oxo-3-quinolyl]-N'-(2,4-difluorophenyl)urea]	97.9%	–	–
Cn1c(=O)c(NC(=O)Nc2ccc(F)cc2F)c(-c2ccccc2Cl)c2cc(Cl)ccc21 [Example 1]	96.8%	–	–
Cc1cc2c(-c3ccccc3C)c(NC(=O)Nc3ccc(F)cc3F)c(=O)n(C)c2cc1C [Example 10, N-(2,4-difluorophenyl)-N'-(1,2-dihydro-1,6,7-trimethyl-4-(2-methylphenyl)-2-oxo-3-quinolyl]urea]	97.6%	0.078 µM	–
COc1ccc(-c2c(NC(=O)Nc3c(C)cccc3C(C)C)c(=O)n(C)c3ccc(C)cc23)cc1OC [Example 22, N-[1,2-dihydro-4-(3,4-dimethoxyphenyl)-1,6-dimethyl-3-quinolyn]-N'-(2-isopropyl-6-methylphenyl)urea]	99%	0.037 µM	–
Cc1cc(C)c2c(c1)c(-c1ccccc1Cl)c(NC(=O)Nc1c(C)cccc1C(C)C)c(=O)n2C [Example 5, N-[4-(2-chlorophenyl)-1,2-dihydro-1,6,8-trimethyl-2-oxo-3-quinolyl]-N'-(2-isopropyl-6-methylphenyl)urea]	98.2%	0.018 µM	–
Cc1cc2c(-c3ccccc3Cl)c(NC(=O)Nc3ccc(F)cc3F)c(=O)n(C)c2cc1C [Example 3, N-[4-(2-chlorophenyl)-1,6,7-trimethyl-1,2-dihydro-2-oxo-3-quinolyl]-N'-(2,4-difluorophenyl)urea]	98.7%	0.0064 µM	129 ± 19 mg/dL
CCc1ccc2c(c1)c(-c1ccccc1Cl)c(NC(=O)Nc1ccc(F)cc1F)c(=O)n2C [Example 17, N-[4-(2-chlorophenyl)-1,2-dihydro-6-ethyl-1-methyl-2-oxo-3-quinolyl]-N'-(2,4-difluorophenyl)urea]	96.5%	0.025 µM	–
COc1nc2c(C)cc(C)cc2c(-c2ccccc2Cl)c1NC(=O)Nc1ccc(F)cc1F [Example 12, N-[4-(2-chlorophenyl)-2-methoxy-6,8-dimethyl-3-quinolyl]-N -(2,4-difluorophenyl)urea]	95.9%	–	–
CCc1ccc2c(c1)c(-c1ccccc1Cl)c(NC(=O)Nc1c(C)cccc1C(C)C)c(=O)n2C [Example 18, N-[4-(2-chlorophenyl)-1,2-dihydro-6-ethyl-1-methyl-2-oxo-3-quinolyl]-N'-(2-isopropyl-6-methylphenyl)urea]	99.2%	0.012 µM	–
Cc1cc(C)c2nc(C)c(NC(=O)Nc3ccc(F)cc3F)c(-c3ccccc3Cl)c2c1 [Example 13, N-[4-(2-chlorophenyl)-2,6,8-trimethyl-3-quinolyl]-N'-(2,4-difluorophenyl)urea]	85.4%	–	–
Cc1ccccc1-c1c(NC(=O)Nc2ccc(F)cc2F)c(=O)n(C)c2ccc(Cl)cc12 [Example 20, N-[6-chloro-1,2-dihydro-1-methyl-4-(2-methylphenyl)-2-oxo-3-quinolyl]-N'-(2,4-difluorophenyl)urea]	96.1%	0.035 µM	–
CC(C)c1ccc2c(c1)c(-c1ccccc1Cl)c(NC(=O)Nc1ccc(F)cc1F)c(=O)n2C [Example 19, N-[4-(2-chlorophenyl)-1,2-dihydro-6-isopropyl-1-methyl-2-oxo-3-quinolyl]-N'-(2,4-difluorophenyl)urea]	97.8%	0.037 µM	–
COc1ccc(-c2c(NC(=O)Nc3c(C)cccc3C(C)C)c(=O)n(C)c3ccc(Cl)cc23)cc1OC [Example 23]	99%	0.041 µM	–
COc1cc(NC(=O)Nc2c(-c3ccccc3Cl)c3cc(C)c(C)cc3n(C)c2=O)cc(OC)c1OC(C)=O [Example 15, N-(4-acetoxy-3,5-di-methoxyphenyl) -N'-[4-(2-chlorophenyl)-1,2-dihydro-1,6,7-trimethyl-2-oxo-3-quinolyl]urea]	90.1%	–	–
